The target of assay [1] is MLK3 (Rattus norvegicus (Rat), UniProt Q66HA1). The note with it: primary rat neurons; cited from earlier work.
Assay [2] relates to primary rat hippocampal neurons. The note with it: primary rat hippocampal and dorsal root ganglion neurons; cited from earlier work.
Assay [3] has as its system HIV-1. To be noted: in vivo model of HIV-1 infection; cited from earlier work.
The test system of assay [4] is HIV-1 ADA. The assay can be described thus: HIV-1 infection model in humanized mice. The class given is in vivo. To be noted: nanoART 6 weeks s.c.; Compound AH 10 mg/kg i.p. once daily during final two weeks. On the procedure:
The MLK inhibitor Compound AH was used in test with an animal model for HIV-1 infection. Specifically, 22 week old humanized mice (NOD/scidIL-2Rγc^null (NSG) mice stably engrafted with human CD34+ hematopoeitic stem cells were infected with HIV-1 ADA (Gorantla et al., J. Virol. 81:2700-2712, 2007). The mice were then treated with the nanoformulated antiretroviral therapy comprising atazanavir and ritonavir (nanoART) for 6 weeks by s.c. injections (6×/week). During the final two weeks, the animals also received the MLK-3 inhibitor Compound AH by once daily injection (10 mg/kg i.p.). Viral RNA load was measured over time in plasma from these mice, and productively infected cells were counted in tissues harvested from animals at sacrifice (including lymph node (FIG. 4) and spleen (FIG. 5)).
Further, starting at 10 weeks post infection, when the mice were at the peak of their viral load (VL) the MLK-3 inhibitor Compound AH was administered daily and the nanoART was administered weeks for three weeks. Peripheral VL ratio of human CD4+ and CD8+ T lymphocyte, drug levels in plasma and organs and pathological changes in lymphoid and brain tissues were investigated.
(§1) Higher plasma drug levels correspond to lowest viral load.

Assay [5] deals with Tat (Human immunodeficiency virus type 1 group M subtype B (isolate HXB2) (HIV-1), UniProt P04608). As to the kind of experiment: Tat injection model, synapse protection and neuroinflammation (FIGS. 10-24). Format: in vivo. How it is done: FIG. 19 is a group of photographs showing IHC synapse protection. Map2 staining 28 days post injection at the injection site. Pre/continuous treatment with Compound AH at 10 mg/kg i.p. q 12, 9 μg of Tat injected at 80 nL/min. The same Compound AH/Tat treatment paradigm was used in FIGS. 20-24.
(FIGS. 10-24). The compound is a selectively non-selective inhibitor for a subset of kinases that have pathogenetic roles for activation of immune effector cells with damage to target cells (neurons, myocytes, pancreatic acinar cells) in both central and peripheral degenerative diseases with autoimmune components.

For assay [6], the system named is MOG35-55 EAE mice. The assay can be described thus: MOG35-55 EAE model. Format: in vivo. The text has this: Hippocampal synaptic injury in MOG35-55 EAE mice correlates with microglial activation and may occur independent of myelin loss. […] Protective effects in EAE hippocampal gray matter appear dissociable from those in the spinal cord. Many interventions targeting microglial function affect EAE motor deficits and the spinal cord inflammation that those largely reflect.

For assay [7], the system named is Rab 7 late endosomal compartment. The assay can be described thus: Rab studies: nanoART drug levels in endosomal compartments. Format: cell-based. On the procedure:
FIG. 25 is a graph showing that Compound AH is able to sustain the presence of atazanavir/ritonavir nanoART in late endosomes. Concentrations of 1 and 10 ng/mL of Compound AH increases drug levels for more than 10 days in these compartments. This is significant and reproducible. […] Thus more of the drug is present in there for longer time periods, boosting efficacy and leading to reduction of residual virus.
The Rab 7 compartment increased marked in size and expression (protein content) as a result of HIV infection. […] That is also where anti-HIV proteases work and where their sites of actions lie. […] This signals that the combination has eliminated or nearly so, the ability of virus to assemble in this compartment.

Assay [8] concerns Human monocytes. As to the kind of experiment: Tat-assays: Tat-induced cytokine and chemokine production in human monocytes (Luminex). The class given is cell-based. The note with it: 50 nM HIV-1 Tat, 8 hours. How it is done:
Human monocytes were isolated from freshly collected whole blood using CD14 immunomagnetic beads (Miltenyi-Biotec). Cells were then plated in 24-well plates at 5×10^4 cells/well in RPMI-1640 culture medium supplemented with 10% fetal bovine serum (FBS). The specified compounds were then added to the cultures at the indicated concentrations (100, […], 1000 nM); in control wells, no compound was added. 30 min later, HIV-1 Tat was added to a final concentration of 50 nM the cells were incubated for 8 hours (in control wells, nothing was added [NT]). Cell supernatants were then collected, centrifuged 15 min at 13000 rpm to remove debris, transferred to new microcentrifuge tubes and frozen at −20° C. A Luminex bead array assay was then performed, for the indicated chemokines and cytokines. Results were measured in triplicate or quadruplicate, and data are presented as mean values; error bars denote the standard deviation. Note that similar results were obtained with monocytes derived from multiple (n>5) different donors, as well as in terminally differentiated monocyte-derived macrophages (data not shown due to space limitations). *:p<0.05; one-way ANOVA with Bonferroni's correction (when compared to Tat only control). See FIG. 11 (tat-induced cytokine production) and FIG. 12 (tat-induced chemokine production).

For assay [9], the target named is Rab7 (Homo sapiens (Human), UniProt P51149). As to the kind of experiment: Proteomic analyses of human monocyte-derived macrophages (Rab7). To be noted: HIV-1 infected MDM. The class given is cell-based.
Source text: FIG. 7 (top) is a schematic of a proteomic analysis.
FIG. 8 is a photograph from a Western blot validation for Rab7a. Rab7A (Protein KB) is a key regulator in endolysosomal trafficking. It governs early-to-late endosomal maturation, microtubule minus-end as well as plus-end directed endosomal migration and positioning, and endosome-lysosome transport.
as §1

SMILES strings stand for the structures.

Tat, sequence (P04608 whole entry, looked up): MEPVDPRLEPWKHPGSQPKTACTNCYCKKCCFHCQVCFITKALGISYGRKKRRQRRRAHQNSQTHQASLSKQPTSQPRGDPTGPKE
MLK3, sequence (Q66HA1 whole entry): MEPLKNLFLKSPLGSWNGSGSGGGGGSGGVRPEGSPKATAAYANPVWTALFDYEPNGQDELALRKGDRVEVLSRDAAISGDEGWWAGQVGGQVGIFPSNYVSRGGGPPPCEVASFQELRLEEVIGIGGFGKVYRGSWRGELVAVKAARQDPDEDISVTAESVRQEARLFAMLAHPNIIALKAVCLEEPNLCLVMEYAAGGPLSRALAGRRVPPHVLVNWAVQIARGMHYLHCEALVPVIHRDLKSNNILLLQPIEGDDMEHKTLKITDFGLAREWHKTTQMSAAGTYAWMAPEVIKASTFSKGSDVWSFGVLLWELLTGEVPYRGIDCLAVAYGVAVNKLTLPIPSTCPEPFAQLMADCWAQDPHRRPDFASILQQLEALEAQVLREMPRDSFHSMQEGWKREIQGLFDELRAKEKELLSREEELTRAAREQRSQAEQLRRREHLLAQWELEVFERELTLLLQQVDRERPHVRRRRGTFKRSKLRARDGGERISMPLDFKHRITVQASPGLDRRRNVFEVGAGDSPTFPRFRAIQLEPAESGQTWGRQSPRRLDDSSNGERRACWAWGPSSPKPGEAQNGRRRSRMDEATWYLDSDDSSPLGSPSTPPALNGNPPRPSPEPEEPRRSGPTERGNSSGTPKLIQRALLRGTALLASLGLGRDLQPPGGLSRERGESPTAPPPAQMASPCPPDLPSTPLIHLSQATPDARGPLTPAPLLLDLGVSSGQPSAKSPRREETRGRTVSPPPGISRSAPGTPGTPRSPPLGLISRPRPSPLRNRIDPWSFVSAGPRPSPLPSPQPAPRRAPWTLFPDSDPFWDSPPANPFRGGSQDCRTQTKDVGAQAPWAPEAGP

Regarding `CCSCc1ccc2c(c1)c1c3c(c4c5cc(CSCC)ccc5n5c4c1n2[C@H]1C[C@](O)(C(=O)OC)[C@]5(C)O1)CNC3=O` (relative stereo) [CEP1347, 3,9-bis[(ethylthio)methyl]-(8R*,9S*, 11S*)-(−)-9-hydroxy-9-methoxycarbonyl-8-methyl-2,3,9,10-tetrahydro-8,11-epoxy-1H,8H, 11H-2,7b,11a-triazadibenzo(a,g)cycloocta(cde)trinden-1-one], the “Tat and gp120 induced autophosphorylation of MLK3” value in assay [1] is on record as “abolished”. Also, the “protection of neurons from lethal effects of HIV-1 gp120” value in assay [2] is given as “can protect primary rat hippocampal neurons as well as dorsal root ganglion neurons”. In addition, the neuroprotection in vivo entry in [3] is “neuroprotective”.
As to `CN1CCN(Cc2ccc(-c3cnc4[nH]cc(-c5ccc6[nH]ccc6c5)c4c3)cc2)CC1` [Compound AH], the HIV-1 viral load result in assay [4] is reported as “modest reducing in HIV-1 viral load”. Further, the “neuroprotection to the synapse” value in [5] (Compound AH 10 mg/kg i.p. q 12, 9 μg of Tat injected) is given as “provides neuroprotection to the synapse”. In [5] (FIGS. 10-24), the neuroinflammation entry is “anti-neuroinflammatory”. For the same compound, in assay [6] (EAE hippocampus), the “microglial activation in EAE hippocampus” value is listed as “attenuates microglial activation” and the “synaptic structure in EAE hippocampus” value is “protects synaptic structure”. The EAE motor deficits entry in [6] (treatment at onset of clinical disease) was “no effect on EAE motor deficits”. Also, the “time for which atazanavir/ritonavir nanoART drug levels in late endosomes are increased” value in assay [7] (1 and 10 ng/mL of Compound AH, FIG. 25) is given as “more than 10 days”. Further, the “drug levels in Rab compartments” value in [7] (Compound AH induction) is reported as “general increase in drug levels was seen in all Rab compartments”. For the same compound, the tat-induced cytokine production result in [8] (FIG. 11) is recorded as “blocks tat-induced cytokine production”. Further, in assay [8] (FIG. 12), the tat-induced chemokine production entry is reported as “blocks tat-induced chemokine production”. In addition, the Rab7 protein regulation entry in assay [9] is “induced the RAS-related GTP-binding protein Rab7”.

The values above are taken from patent US10485800B2, “Mixed lineage kinase inhibitors for HIV/AIDS therapies” (UNIVERSITY OF ROCHESTER, priority 2012, dated 2019).
